{"source": "patent US20100004267A1", "about": "“LIQUID PREPARATION” (ASUBIO PHARMA CO., LTD., priority 2006, published 2010)", "experiment": "Stability test based on difference of pH buffer, 6 months (Test example 4)", "assay_type": "physicochemical", "set-up": "key to Insoluble materials: ◯ means absence of insoluble matters; X: × means presence of insoluble matters", "procedure": "According to experimental formulations and target pH shown in Table 4 below, liquid preparations were prepared in the following manner.\nAfter filtering this solution under reduced pressure, 20 mL of this solution was filled into a brown ampule subjected to inner wall treatment by SiO2 glass film (Silicoat ampule; brown 20 mL-volume; available from FUJI GLASS CO., LTD.), and then the ampule was sealed. Using high-pressure steam sterilizer (autoclave), the ampule was autoclaved in a setting condition: 121° C./24 minutes.\nThe samples were stored at 5° C., 25° C./60% relative humidity (RH), […] were evaluated in time series until a lapse of 6 months, after evaluating presence/absence of insoluble foreign matters after autoclave sterilization. For evaluation of insoluble foreign matters, an appearance checker was used and observation was conducted under 1,000 Lux. […]\nLikewise the foregoing (1) liquid preparation with acetic acid buffer system (for pH adjustment, 1 mol/L or 0.1 mol/L hydrochloric acid was used), each sample was prepared according to the experimental formulations and target pH shown in Table 4 below, and each sample was stored at 5° C., 25° C./60% relative humidity (RH), […] were evaluated in time-series until a lapse of 6 months, after evaluating presence/absence of insoluble foreign matters after autoclave sterilization. […]", "key": {"[1]": {"details": "acetic acid/sodium acetate buffer, Captisol 10.0%, pH at preparation 3.8 (Table 4 no. 3), 40° C./75% RH/6 months"}, "[2]": {"details": "acetic acid/sodium acetate buffer, Captisol 10.0%, pH at preparation 4.2 (Table 4 no. 4), 40° C./75% RH/6 months"}, "[3]": {"details": "glycine buffer, Captisol 7.5%, pH at preparation 3.8 (Table 4 no. 5), 40° C./75% RH/6 months"}, "[4]": {"details": "glycine buffer, Captisol 7.5%, pH at preparation 4.2 (Table 4 no. 6), 40° C./75% RH/6 months"}, "[5]": {"details": "glycine buffer, Captisol 10.0%, pH at preparation 3.8 (Table 4 no. 7), 40° C./75% RH/6 months"}, "[6]": {"details": "glycine buffer, Captisol 10.0%, pH at preparation 4.2 (Table 4 no. 8), 40° C./75% RH/6 months"}}}
{"smiles": "Cc1cc(OC[C@@H](O)CN2CCN(c3ccc(Cc4ccc(F)cc4)cc3)CC2)c(C)c(C)c1N", "note": "[SUN N8075, (2S)-1-(4-amino-2,3,5-trimethylphenoxy)-3-{4-[4-(4-fluorobenzyl)phenyl]-1-piperazinyl}-2-propanol dimethane sulfonate]", "values": [{"measurement": "Insoluble materials", "setting": "acetic acid/sodium acetate buffer, Captisol 7.5%, pH at preparation 3.8 (Table 4 no. 1), 5° C./6 months", "result": "◯"}, {"measurement": "Storage period at which generation of insoluble matters was observed", "setting": "acetic acid/sodium acetate buffer, Captisol 7.5%, pH at preparation 3.8 (Table 4 no. 1), 25° C./60% RH", "result": "(6 months)"}, {"measurement": "Insoluble materials", "setting": "acetic acid/sodium acetate buffer, Captisol 7.5%, pH at preparation 3.8 (Table 4 no. 1), 25° C./60% RH/6 months", "result": "X"}, {"measurement": "Insoluble materials", "setting": "acetic acid/sodium acetate buffer, Captisol 7.5%, pH at preparation 3.8 (Table 4 no. 1), 40° C./60% RH/6 months", "result": "◯"}, {"measurement": "pH", "setting": "acetic acid/sodium acetate buffer, Captisol 7.5%, pH at preparation 3.8 (Table 4 no. 1), 40° C./75% RH/6 months", "result": 2.74}, {"measurement": "Insoluble materials", "setting": "acetic acid/sodium acetate buffer, Captisol 7.5%, pH at preparation 3.8 (Table 4 no. 1), just after autoclave sterilization", "result": "◯"}, {"measurement": "Insoluble materials", "setting": "acetic acid/sodium acetate buffer, Captisol 7.5%, pH at preparation 4.2 (Table 4 no. 2), 5° C./6 months", "result": "◯"}, {"measurement": "Insoluble materials", "setting": "acetic acid/sodium acetate buffer, Captisol 7.5%, pH at preparation 4.2 (Table 4 no. 2), 25° C./60% RH/6 months", "result": "◯"}, {"measurement": "Storage period at which generation of insoluble matters was observed", "setting": "acetic acid/sodium acetate buffer, Captisol 7.5%, pH at preparation 4.2 (Table 4 no. 2), 40° C./60% RH", "result": "(3 months)"}, {"measurement": "Insoluble materials", "setting": "acetic acid/sodium acetate buffer, Captisol 7.5%, pH at preparation 4.2 (Table 4 no. 2), 40° C./60% RH/6 months", "result": "X"}, {"measurement": "pH", "setting": "acetic acid/sodium acetate buffer, Captisol 7.5%, pH at preparation 4.2 (Table 4 no. 2), 40° C./75% RH/6 months", "result": 2.96}, {"measurement": "Insoluble materials", "setting": "acetic acid/sodium acetate buffer, Captisol 7.5%, pH at preparation 4.2 (Table 4 no. 2), just after autoclave sterilization", "result": "◯"}, {"measurement": "Insoluble materials", "setting": "acetic acid/sodium acetate buffer, Captisol 10.0%, pH at preparation 3.8 (Table 4 no. 3), 5° C./6 months", "result": "◯"}, {"measurement": "Insoluble materials", "setting": "acetic acid/sodium acetate buffer, Captisol 10.0%, pH at preparation 3.8 (Table 4 no. 3), 25° C./60% RH/6 months", "result": "◯"}, {"measurement": "Insoluble materials", "setting": "[1]", "result": "◯"}, {"measurement": "pH", "setting": "[1]", "result": 2.60}, {"measurement": "Insoluble materials", "setting": "acetic acid/sodium acetate buffer, Captisol 10.0%, pH at preparation 3.8 (Table 4 no. 3), just after autoclave sterilization", "result": "◯"}, {"measurement": "Insoluble materials", "setting": "acetic acid/sodium acetate buffer, Captisol 10.0%, pH at preparation 4.2 (Table 4 no. 4), 5° C./6 months", "result": "◯"}, {"measurement": "Insoluble materials", "setting": "acetic acid/sodium acetate buffer, Captisol 10.0%, pH at preparation 4.2 (Table 4 no. 4), 25° C./60% RH/6 months", "result": "◯"}, {"measurement": "Insoluble materials", "setting": "[2]", "result": "◯"}, {"measurement": "pH", "setting": "[2]", "result": 2.82}, {"measurement": "Insoluble materials", "setting": "acetic acid/sodium acetate buffer, Captisol 10.0%, pH at preparation 4.2 (Table 4 no. 4), just after autoclave sterilization", "result": "◯"}, {"measurement": "Insoluble materials", "setting": "glycine buffer, Captisol 7.5%, pH at preparation 3.8 (Table 4 no. 5), 5° C./6 months", "result": "◯"}, {"measurement": "Insoluble materials", "setting": "glycine buffer, Captisol 7.5%, pH at preparation 3.8 (Table 4 no. 5), 25° C./60% RH/6 months", "result": "◯"}, {"measurement": "Insoluble materials", "setting": "[3]", "result": "◯"}, {"measurement": "pH", "setting": "[3]", "result": 3.46}, {"measurement": "Insoluble materials", "setting": "glycine buffer, Captisol 7.5%, pH at preparation 3.8 (Table 4 no. 5), just after autoclave sterilization", "result": "◯"}, {"measurement": "Insoluble materials", "setting": "glycine buffer, Captisol 7.5%, pH at preparation 4.2 (Table 4 no. 6), 5° C./6 months", "result": "◯"}, {"measurement": "Insoluble materials", "setting": "glycine buffer, Captisol 7.5%, pH at preparation 4.2 (Table 4 no. 6), 25° C./60% RH/6 months", "result": "◯"}, {"measurement": "Insoluble materials", "setting": "[4]", "result": "◯"}, {"measurement": "pH", "setting": "[4]", "result": 3.73}, {"measurement": "Insoluble materials", "setting": "glycine buffer, Captisol 7.5%, pH at preparation 4.2 (Table 4 no. 6), just after autoclave sterilization", "result": "◯"}, {"measurement": "Insoluble materials", "setting": "glycine buffer, Captisol 10.0%, pH at preparation 3.8 (Table 4 no. 7), 5° C./6 months", "result": "◯"}, {"measurement": "Insoluble materials", "setting": "glycine buffer, Captisol 10.0%, pH at preparation 3.8 (Table 4 no. 7), 25° C./60% RH/6 months", "result": "◯"}, {"measurement": "Insoluble materials", "setting": "[5]", "result": "◯"}, {"measurement": "pH", "setting": "[5]", "result": 3.49}, {"measurement": "Insoluble materials", "setting": "glycine buffer, Captisol 10.0%, pH at preparation 3.8 (Table 4 no. 7), just after autoclave sterilization", "result": "◯"}, {"measurement": "Insoluble materials", "setting": "glycine buffer, Captisol 10.0%, pH at preparation 4.2 (Table 4 no. 8), 5° C./6 months", "result": "◯"}, {"measurement": "Insoluble materials", "setting": "glycine buffer, Captisol 10.0%, pH at preparation 4.2 (Table 4 no. 8), 25° C./60% RH/6 months", "result": "◯"}, {"measurement": "Insoluble materials", "setting": "[6]", "result": "◯"}, {"measurement": "pH", "setting": "[6]", "result": 3.74}, {"measurement": "Insoluble materials", "setting": "glycine buffer, Captisol 10.0%, pH at preparation 4.2 (Table 4 no. 8), just after autoclave sterilization", "result": "◯"}]}
